Counter-ions that a name gives are not always drawn.
How the values were obtained:
[1] = Moisture sorption by Dynamic Vapour Sorption (DVS); format: physicochemical; conditions: 30° C.
Description: The moisture sorption of eletriptan hydrobromide monohydrate was determined using a Dynamic Vapour Sorption (DVS) Automated Sorption Analyser Model DVS-1 instrument manufactured by Surface Measurements Systems Ltd., UK.
Approximately 25 mg of eletriptan hydrobromide monohydrate was accurately weighed into a sample pan. This was exposed to humidities in the range of from 0 to 90% RH. The analysis was carried out in detail in the range of from 0 to 15% RH, using 15% RH steps in the range of from 15 to 90% RH. The analysis temperature was 30° C. with a nitrogen flow rate of 200 cm^3min^−1.
Once the monohydrate has formed there is very little additional moisture sorbed and within the range 10 to 90% RH less than 0.3% w/w of water is sorbed.

[2] = Storage stability of the drug substance, HPLC analysis; format: physicochemical; conditions: double polyethylene bags inside a fibreboard drum
Description: • 1) Eletriptan hydrobromide monohydrate was stored in double polyethylene bags inside a fibreboard drum under the following conditions: • 25° C./60% RH for 9 months • 30° C./60% RH for 9 months • 40° C./75% RH for 6 months • (RH=relative humidity)

[3] = 4 weeks at 40° C. and 90% relative humidity; cited from earlier work
[4] = on further processing; cited from earlier work

SMILES: CN1CCC[C@@H]1Cc1c[nH]c2ccc(CCS(=O)(=O)c3ccccc3)cc12 [eletriptan hydrobromide monohydrate]
- hygroscopicity ([1]; 0 to 90% RH): essentially non-hygroscopic
- hydrate state ([1]; above 6% RH): remains as a monohydrate
- water lost (water of the monohydrate) ([1]; at 0% RH): 3.8 % w/w
- water sorbed ([1]; within the range 10 to 90% RH): less than 0.3 % w/w
- degradation on storage (HPLC) ([2]; 25° C./60% RH for 9 months): no degradation had occurred
- degradation on storage (HPLC) ([2]; 30° C./60% RH for 9 months): no degradation had occurred
- degradation on storage (HPLC) ([2]; 40° C./75% RH for 6 months): no degradation had occurred

SMILES: Br.CN1CCC[C@@H]1Cc1c[nH]c2ccc(CCS(=O)(=O)c3ccccc3)cc12 [anhydrous eletriptan hydrobromide]
- water absorbed on standing [3]: ≤ 1.23 % by weight
- stability of the solid form [4]: unstable and to undergo polymorphic conversion to the alpha-form
